Results from PMC12369021, “Biased Signaling and Its Role in the Genesis of Short- and Long-Acting β2‑Adrenoceptor Agonists” (Biochemistry, 2025).
Like-named read-outs stand apart in the source and are kept apart here.

Key:
β2AR [1] = conditions: cited from earlier work
β2AR [2] = target: T1, β2AR (Homo sapiens, UniProt P07550); test: nanoBRET mGs protein recruitment assay in T-REx-293-β2AR-nLuc cells; format: cell-based; conditions: for EC50: mean ± SEM
Target sequence in this assay (P07550 whole entry): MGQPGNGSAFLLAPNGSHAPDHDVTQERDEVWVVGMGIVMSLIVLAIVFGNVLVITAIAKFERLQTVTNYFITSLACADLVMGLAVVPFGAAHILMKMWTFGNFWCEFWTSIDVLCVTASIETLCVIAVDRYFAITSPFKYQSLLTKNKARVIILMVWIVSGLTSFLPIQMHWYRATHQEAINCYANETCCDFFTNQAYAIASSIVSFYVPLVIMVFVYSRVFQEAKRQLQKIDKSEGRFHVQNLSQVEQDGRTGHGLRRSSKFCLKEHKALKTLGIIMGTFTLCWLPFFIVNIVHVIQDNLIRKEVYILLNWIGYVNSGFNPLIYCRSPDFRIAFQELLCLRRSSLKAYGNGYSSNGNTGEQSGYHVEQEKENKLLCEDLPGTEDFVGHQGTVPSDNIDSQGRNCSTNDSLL

β2AR [3] = target: T1, β2AR; test: nanoBRET β-arrestin2 recruitment assay in T-REx-293-β2AR-nLuc cells; format: cell-based; conditions: for EC50: mean ± SEM
Target sequence in this assay (P07550 whole entry): as above
Target sequence in this assay (P32121 whole entry partner): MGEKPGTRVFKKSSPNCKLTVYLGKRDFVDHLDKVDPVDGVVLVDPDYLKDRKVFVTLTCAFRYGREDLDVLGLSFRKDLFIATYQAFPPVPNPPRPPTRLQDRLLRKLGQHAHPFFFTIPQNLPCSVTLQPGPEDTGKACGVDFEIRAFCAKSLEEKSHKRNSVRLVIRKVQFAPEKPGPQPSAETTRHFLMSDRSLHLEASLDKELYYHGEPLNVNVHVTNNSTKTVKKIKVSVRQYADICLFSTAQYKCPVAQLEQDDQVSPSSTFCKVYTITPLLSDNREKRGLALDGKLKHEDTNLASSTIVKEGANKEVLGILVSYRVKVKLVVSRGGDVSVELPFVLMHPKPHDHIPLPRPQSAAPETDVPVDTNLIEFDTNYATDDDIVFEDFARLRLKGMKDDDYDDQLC

β2AR [4] = conditions: for log bias factor (mGs/Arr2): ΔΔlog(Emax/EC50) relative to reference formoterol, from peak responses
Description: To determine the relative effectiveness of the compounds to activate the different signaling pathways, the difference between the log(E max/EC50) values was calculated.
Using the estimates of agonist activity Δlog(E max/EC50) for the test and reference agonists, pathway log bias was calculated as follows: 3 ΔΔlog(Emax/EC50)=Δlog(Emax/EC50)P1−Δlog(Emax/EC50)P2 where pathway 1 (P1) is mGs-dependent recruitment and pathway 2 (P2) is β-arrestin2 recruitment. Bias factors were calculated by taking the antilog of the ΔΔlog(E max/EC50).
Error on the pathway bias was calculated using the following formula: 4 SEMΔΔlog(Emax/EC50)=SEMΔlog(Emax/EC50)P12+SEMΔlog(Emax/EC50)P22

[5] = read-out: mGs Emax at room temperature
[6] = read-out: mGs Emax derived from AUC analysis
[7] = read-out: β-arrestin2 Emax at room temperature
[8] = read-out: β-arrestin2 Emax derived from AUC analysis
[9] = ΔΔlog(Emax/EC50) relative to formoterol, AUC-derived

Emax (β2AR [2]; read-out: mGs E max) [%]	Emax (β2AR [2]; [5]) [%]	Emax (β2AR [2]; [6]) [%]	Emax (β2AR [3]; [7]) [%]	SMILES	Log Bias Factor (mGs/Arr2) from AUC analysis (β2AR [4]; [9])	log bias factor (mGs/Arr2) (β2AR [4])	further results
–	–	–	–	C=CCc1ccccc1OCC(O)CNC(C)C (stereo not shown) [Alprenolol]	–	–	Ki (β2AR [1]): 0.912 nM
–	–	–	–	COc1ccc(CC(C)NCC(O)c2ccc(O)c(NC=O)c2)cc1 (stereo not shown) [Formoterol]	–	0 ± 0.10	–
97.8 ± 1.4	101 ± 2.8	93.9 ± 1.7	116 ± 1.7	CCC(NC(C)C)C(O)c1ccc(O)c(O)c1 (stereo not shown) [Isoetharine]	0.79 ± 0.06	0.59 ± 0.13	EC50 (β2AR [2]; AUC analysis, 37 °C, read-out: mGs pEC50 derived from AUC analysis (converted)): 38 nM; EC50 (β2AR [2]; peak response at 30 min, 37 °C, read-out: mGs pEC50 (converted)): 61.7 nM; EC50 (β2AR [2]; room temperature, 3 observations, read-out: mGs pEC50 at room temperature (converted)): 13.5 nM; EC50 (β2AR [3]; AUC analysis, 37 °C, read-out: β-arrestin2 pEC50 derived from AUC analysis (converted)): 224 nM; EC50 (β2AR [3]; peak response, 37 °C, read-out: β-arrestin2 pEC50 (converted)): 417 nM; Emax (β2AR [3]; read-out: β-arrestin2 E max): 112 ± 5.9%; Emax (β2AR [3]; [8]): 103 ± 4.37%; EC50 (β2AR [3]; room temperature, 3 observations, read-out: β-arrestin2 pEC50 at room temperature (converted)): 209 nM; Ki (β2AR [1]): 1580 nM
–	–	–	–	CC(C)NCC(O)c1ccc(O)c(O)c1 (stereo not shown) [Isoprenaline, isoprenaline]	–	0.48 ± 0.14	Log Bias Factor (mGs/Arr2) from AUC analysis (β2AR [4]): 0.51 ± 0.07
–	–	–	–	CC(C)(C)NCC(O)c1ccc(O)c(CO)c1 (stereo not shown) [Salbutamol]	1.65 ± 0.06	1.42 ± 0.19	–
–	–	–	–	OCc1cc(C(O)CNCCCCCCOCCCCc2ccccc2)ccc1O (stereo not shown) [Salmeterol]	–	0.53 ± 0.15	–
33.6 ± 0.6	41.9 ± 1.4	32.8 ± 0.4	8.8 ± 1	CC(C)(C)NCC(O)c1ccccc1Cl (stereo not shown) [Tulobuterol]	–	–	–

SMILES	Emax (β2AR [2]; read-out: mGs E max) [%]	Emax (β2AR [2]; [5]) [%]	Emax (β2AR [2]; [6]) [%]	Emax (β2AR [3]; [7]) [%]	Log Bias Factor (mGs/Arr2) from AUC analysis (β2AR [4]; [9])	log bias factor (mGs/Arr2) (β2AR [4])	further results
CC(Cc1ccc(O)cc1)NCC(O)c1cc(O)cc(O)c1 (stereo not shown) [Fenoterol, fenoterol]	77 ± 0.4	73.9 ± 2.1	76.7 ± 0.8	83.8 ± 7.1	0.37 ± 0.05	0.32 ± 0.11	Emax (β2AR [3]; read-out: β-arrestin2 E max): 85 ± 2.5%; Emax (β2AR [3]; [8]): 93.6 ± 8.1%
